The numbers were not newly measured in US20080004279A1, “Use of C-Kit Inhibitors for Treating Plasmodium Related Diseases” (priority 2004, published 2008), which cites them from elsewhere.

The subject of data set [1] is GPI-induced NO production in macrophages and vascular endothelial cells.
For data set [2], the system named is membrane bound PTK.

With calphostin C, the “GPI-induced NO production / release” value in data set [1] is given as “blocked”.

For the molecule `O=c1c(-c2ccc(O)cc2)coc2cc(O)cc(O)c12` [genistein], the “release of NO by parasite extracts and by GPI” value in data set [1] (GPI alone or in combination with IFN-gamma) is reported as “inhibited”. As to `CCN(CC)CCCC(C)Nc1ccnc2cc(Cl)ccc12` (stereo not drawn) [Chloroquine], in data set [2] (kinetic studies), the “mode of inhibition of PTK with respect to ATP” value is recorded as “noncompetitive” and the “mode of inhibition of PTK with respect to peptide substrate” value is reported as “competitive inhibitor”. Moreover, the concentration for half-maximal inhibition (IC50) in data set [2] (read-out: inhibition of membrane bound PTK activity, IC50, dose dependent, P. falciparum) was 45 µM.

Regarding `S=C(S)N1CCCC1` [pyrrolidine dithiocarbamate], the “GPI-induced NO production / release” value in data set [1] is given as “blocked”.

Usually IC50 stands for the point on the concentration scale where inhibition reaches its midpoint.
